Values quoted from earlier work, collected in patent publication US20220040156A1, “COMPOSITIONS, DEVICES AND METHODS FOR TREATING OBSESSIVE-COMPULSIVE DISORDER” (CENTRE FOR DIGESTIVE DISEASES, priority 2017, published 2022).

Tested on: children with autism / autistic symptoms
Conditions: reports of Sandler et al. 2000, Rodakis 2015 and unreferenced observations

CC1(C)S[C@@H]2[C@H](NC(=O)[C@H](N)c3ccc(O)cc3)C(=O)N2[C@H]1C(=O)O [amoxycillin]
effect on behavioural changes / autistic symptoms: reversed almost completely

CN[C@H](CC(C)C)C(=O)N[C@H]1C(=O)N[C@@H](CC(N)=O)C(=O)N[C@H]2C(=O)N[C@H]3C(=O)N[C@H](C(=O)N[C@H](C(=O)O)c4cc(O)cc(O)c4-c4cc3ccc4O)[C@H](O)c3ccc(c(Cl)c3)Oc3cc2cc(c3O[C@@H]2O[C@H](CO)[C@@H](O)[C@H](O)[C@H]2O[C@H]2C[C@](C)(N)[C@H](O)[C@H](C)O2)Oc2ccc(cc2Cl)[C@H]1O [vancomycin]
effect on behavioural changes / autistic symptoms: reversal of behavioural changes and progress to normality within a few weeks
